The results in this text go back to ChEMBL document CHEMBL1138246, “Ester prodrugs of cyclic 1-(S)-[3-hydroxy-2-(phosphonomethoxy)propyl]-5-azacytosine: synthesis and antiviral activity” (J Med Chem, 2007).

Data set [1] deals with HEL. Kind of data set: Cytotoxicity against HEL cells assessed as cell growth after 3 days. In kind it is functional, Homo sapiens.
In data set [2] the test system is Coxsackievirus B4. In kind it is functional, organism-based. The conditions noted are these: Enterovirus B, HeLa.
Data set [3] deals with Vesicular stomatitis virus. Kind of data set: microbe, parasite or virus in culture. The conditions noted are these: HEL.
For the next data set, the system named is Human respirovirus 3. In words: Antiviral activity against Parainfluenza 3 in Vero cells reduction of virus-induced cytopathogenicity after 4 days. In kind it is functional, organism-based. The note with it: Human respirovirus 3, Vero, 96 h. (In general: Damage to the host cells serves as the signal in cytopathic effect assays.)
Data set [4] relates to Respiratory syncytial virus. In kind it is functional, organism-based. The conditions noted are these: human respiratory syncytial virus, HeLa.
Another data set deals with Sindbis virus. In words: Antiviral activity against Sindbis virus in Vero cells reduction of virus-induced cytopathogenicity after 4 days. In kind it is functional, organism-based. The note with it: 96 h.
Data set [5] concerns Human alphaherpesvirus 3. In kind it is functional, organism-based. The conditions noted are these: Human alphaherpesvirus 3, OKA, HEL.
Data set [6] concerns HEL. Kind of data set: Cytotoxicity against HEL cells assessed as alteration in morphology after 3 days. In kind it is functional. The note with it: Homo sapiens, 72 h.
The subject of data set [7] is Mammalian orthoreovirus 1. In words: Antiviral activity against Reovirus 1 in Vero cells reduction of virus-induced cytopathogenicity after 4 days. In kind it is functional, organism-based. The note with it: Mammalian orthoreovirus 1, Vero, 96 h.
Data set [8] has as its system Human alphaherpesvirus 2. In kind it is functional, organism-based. The conditions noted are these: Human alphaherpesvirus 2, G, HEL.
Data set [9] in a line: (§1) Cytotoxicity against Vero cells assessed as alteration in morphology after 3 days. The conditions noted are these: chlorocebus sabaeus, Vero cells. In kind it is cell-based, Chlorocebus sabaeus.
The test system of data set [10] is Coxsackievirus B4. In kind it is functional, organism-based. The conditions noted are these: Enterovirus B, Vero.
For data set [11], the system named is Human alphaherpesvirus 2. In kind it is functional, organism-based. The note with it: Human alphaherpesvirus 2, Lyons, HEL.
Data set [12] relates to Human alphaherpesvirus 3. In kind it is functional, organism-based. The note with it: Human alphaherpesvirus 3, 07-1, HEL.
Another data set deals with Punta Toro virus. Kind of data set: Antiviral activity against Punta Toro virus in Vero cells reduction of virus-induced cytopathogenicity after 4 days. In kind it is functional, organism-based. The note with it: 96 h.
Data set [13] relates to Vesicular stomatitis virus. In words: microbe, parasite or virus in culture. The conditions noted are these: HeLa.
Another data set concerns HeLa. Kind of data set: Cytotoxicity against HeLa cells assessed as alteration in morphology after 3 days. In kind it is functional, cell-based. The note with it: Homo sapiens, 72 h.
The test system of the next data set is Human adenovirus 2. In kind it is functional, organism-based. The note with it: Human mastadenovirus C, HEL.
Data set [14] has as its system Moloney murine sarcoma virus. The conditions noted are these: C3H.
Data set [15] has as its system Human betaherpesvirus 5. In kind it is functional, organism-based. The conditions noted are these: Human betaherpesvirus 5, AD169, HEL.
Data set [16] has as its system Human betaherpesvirus 5. In kind it is functional, organism-based. The conditions noted are these: Human betaherpesvirus 5, Davis, HEL.
For data set [17], the system named is Human immunodeficiency virus 1. In kind it is functional, organism-based. The conditions noted are these: Human immunodeficiency virus 1, 3B, CCRF-CEM, 96 h.
Data set [18] deals with Human immunodeficiency virus 2. In kind it is functional, organism-based. The conditions noted are these: Human immunodeficiency virus 2, ROD, CCRF-CEM, 96 h.
Another data set relates to Vero. The data set is described as §1. In kind it is cell-based, Chlorocebus sabaeus. The note with it: Chlorocebus sabaeus, Vero, 72 h.
For another data set, the system named is CCRF-CEM. Kind of data set: Cytotoxicity against CEM cells assessed as cell growth after 3 days. In kind it is functional. The conditions noted are these: Homo sapiens, 72 h.
The next data set deals with MOLT-3. Kind of data set: Cytotoxicity against MOLT3 cells assessed as alteration in morphology after 3 days. In kind it is functional, Homo sapiens.
Data set [19] is described as follows: Cytotoxicity against HSB2 cells assessed as alteration in morphology after 3 days. In kind it is functional, Homo sapiens, CCRF-HSB-2.
A short description of data set [20]: Cytotoxicity against C3H cells assessed as alteration in morphology after 3 days. In kind it is cell-based, Mus musculus. The conditions noted are these: for MCC at 72 h: mouse, C3H cells.
Setting [21] is: Homo sapiens, HEL, 72 h, read-out: CC50.
Where [22] appears, read: Homo sapiens, CCRF-HSB-2, 72 h, read-out: MCC.

≈ marks a conversion by molar mass, not a printed value.

In the case of `O=c1[nH]c(=O)n([C@H]2C[C@H](O)[C@@H](CO)O2)cc1/C=C/Br` [BRIVUDINE], in the data set on HEL [1] (setting [21]), the CC50 was 212 µg/mL (≈ 636 µM). Besides, the half-maximal effective concentration (EC50) with Coxsackievirus B4 [2] was more than 200 µg/mL; in data set [3] it was 200 µg/mL (≈ 600 µM); in the data set with Human respirovirus 3 it was more than 200 µg/mL; in data set [4] it was more than 200 µg/mL; in the data set on Sindbis virus, more than 200 µg/mL; in the data set on Human alphaherpesvirus 3 [5] it was 0.0022 µg/mL (≈ 0.0066 µM). For the same molecule, the EC50 in [7] is more than 200 µg/mL; with Human alphaherpesvirus 2 [8] it was 9 µg/mL (≈ 27 µM); in the data set with Coxsackievirus B4 [10], more than 200 µg/mL; with Human alphaherpesvirus 2 [11] it was 8.8 µg/mL (≈ 26.4 µM); in the data set on Human alphaherpesvirus 3 [12], not below 44.4 µg/mL; with Punta Toro virus it was more than 200 µg/mL. In data set [13], this molecule displayed a 50% effective concentration (EC50) of 200 µg/mL (≈ 600 µM). The MCC is more than 100 µg/mL in the data set with HEL [6] and more than 200 µg/mL in the data set on HeLa. For the same molecule, the MCC at 72 h in data set [9] was more than 200 µg/mL.
In the case of `Nc1ncn(C[C@@H](CO)OCP(=O)(O)O)c(=O)n1`, the CC50 in the data set on HEL [1] (setting [21]) is 225 µg/mL (≈ 803 µM); in the data set with CCRF-CEM it was 30 µg/mL (≈ 107 µM). Further, the concentration giving a half-maximal response (EC50) is more than 100 µg/mL in the data set with Coxsackievirus B4 [2]; more than 100 µg/mL in data set [3]; more than 100 µg/mL with Human respirovirus 3; 0.71 µg/mL (≈ 2.53 µM) in the data set on Human adenovirus 2; more than 100 µg/mL in data set [4]; more than 100 µg/mL in the data set with Sindbis virus. The EC50 was 0.06 µg/mL (≈ 0.214 µM) in the data set on Human alphaherpesvirus 3 [5]; not below 4 µg/mL in [14]; 0.23 µg/mL (≈ 0.821 µM) in the data set on Human betaherpesvirus 5 [15]; 0.082 µg/mL (≈ 0.293 µM) in the data set with Human betaherpesvirus 5 [16]; more than 100 µg/mL in data set [7]; 20 µg/mL (≈ 71.4 µM) in data set [17]. For the same molecule, the EC50 in the data set with Human alphaherpesvirus 2 [8] is 0.45 µg/mL (≈ 1.61 µM); in data set [18] it was 20 µg/mL (≈ 71.4 µM); in the data set on Vero, more than 100 µg/mL; with Coxsackievirus B4 [10], more than 100 µg/mL; in the data set on Human alphaherpesvirus 2 [11], 0.24 µg/mL (≈ 0.857 µM); with Human alphaherpesvirus 3 [12], 0.039 µg/mL (≈ 0.139 µM). Besides, the concentration giving a half-maximal response (EC50) is more than 100 µg/mL with Punta Toro virus; more than 20 µg/mL in [20] (Mus musculus, C3H, 72 h); more than 100 µg/mL in data set [13]; more than 100 µg/mL in the data set with HeLa. Besides, the MCC was more than 100 µg/mL in the data set on HEL [6]; 16 µg/mL in the data set on MOLT-3 (Homo sapiens, MOLT-3, 72 h, read-out: MCC); 16 µg/mL in data set [19] (setting [22]).
As to `Nc1ncnc2c1ncn2C[C@H](O)CO` [(S)-DHPA], the EC50 in the data set with Coxsackievirus B4 [2] is more than 200 µg/mL; with Human respirovirus 3 it was more than 200 µg/mL; in data set [4], more than 200 µg/mL; in the data set on Sindbis virus, more than 200 µg/mL; in data set [7], 200 µg/mL (≈ 956 µM); in the data set with Coxsackievirus B4 [10] it was more than 200 µg/mL. Besides, the EC50 in the data set on Punta Toro virus was more than 200 µg/mL; in data set [13], 120 µg/mL (≈ 574 µM). Also, in data set [9], the MCC at 72 h was more than 200 µg/mL. Also, the MCC in the data set with HeLa is more than 200 µg/mL.
For `CCCCCCCCCCCCCCCCOCCOP1(=O)CO[C@@H](Cn2cnc(N)nc2=O)CO1` (some centres undefined), the CC50 amounted to 6.4 µg/mL (≈ 12.1 µM) in the data set with HEL [1] and 2 µg/mL (≈ 3.77 µM) in the data set on CCRF-CEM. The EC50 is more than 3.2 µg/mL in the data set with Coxsackievirus B4 [2]; more than 3.2 µg/mL in data set [3]; 16 µg/mL (≈ 30.2 µM) with Human respirovirus 3; less than 0.512 µg/mL with Human adenovirus 2; more than 3.2 µg/mL in data set [4]; 16 µg/mL (≈ 30.2 µM) in the data set on Sindbis virus. The EC50 is 0.0014 µg/mL (≈ 0.00264 µM) in the data set on Human alphaherpesvirus 3 [5]; more than 4 µg/mL in data set [14]; 0.00038 µg/mL (≈ 0.000716 µM) with Human betaherpesvirus 5 [15]; 0.00014 µg/mL (≈ 0.000264 µM) with Human betaherpesvirus 5 [16]; 16 µg/mL (≈ 30.2 µM) in data set [7]; more than 0.8 µg/mL in data set [17]. Further, the EC50 in the data set on Human alphaherpesvirus 2 [8] was 0.082 µg/mL (≈ 0.155 µM); in data set [18], more than 0.8 µg/mL; in the data set on Coxsackievirus B4 [10], 16 µg/mL (≈ 30.2 µM); with Human alphaherpesvirus 2 [11] it was 0.004 µg/mL (≈ 0.00754 µM); in the data set with Human alphaherpesvirus 3 [12], 0.0008 µg/mL (≈ 0.00151 µM); in the data set on Punta Toro virus it was 16 µg/mL (≈ 30.2 µM). The molecule also displayed an EC50 in data set [13] of more than 3.2 µg/mL. Besides, the MCC amounted to 16 µg/mL with HEL [6], 0.56 µg/mL in the data set with MOLT-3, 1.6 µg/mL in data set [19] and 16 µg/mL with HeLa. Further, the MCC at 72 h in data set [9] was 80 µg/mL; in data set [20], 20 µg/mL.
As to `Nc1nc2c(ncn2COCCO)c(=O)[nH]1` [ACYCLOVIR], the CC50 with HEL [1] (setting [21]) stood at 212 µg/mL (≈ 941 µM). Also, the MCC in the data set on HEL [6] was more than 100 µg/mL. Besides, the concentration giving a half-maximal response (EC50) in the data set on Human alphaherpesvirus 2 [8] is 0.05 µg/mL (≈ 0.222 µM).
With `Nc1ccn(C[C@@H](CO)OCP(=O)(O)O)c(=O)n1.O.O` [CIDOFOVIR], the CC50 with HEL [1] (setting [21]) was found to be 76 µg/mL. Besides, the EC50 in the data set on Coxsackievirus B4 [2] is more than 31.5 µg/mL; in data set [3] it was more than 31.5 µg/mL; in the data set on Human respirovirus 3, more than 31.5 µg/mL; in the data set with Human adenovirus 2 it was 2 µg/mL; in data set [4] it was more than 31.5 µg/mL; with Sindbis virus, more than 31.5 µg/mL. Besides, the EC50 in the data set with Human alphaherpesvirus 3 [5] is 0.09 µg/mL; in data set [14], more than 4 µg/mL; in the data set on Human betaherpesvirus 5 [15], 0.15 µg/mL; in the data set on Human betaherpesvirus 5 [16] it was 0.18 µg/mL; in [7], more than 31.5 µg/mL; in data set [17], more than 20 µg/mL. Further, the concentration giving a half-maximal response (EC50) in the data set on Human alphaherpesvirus 2 [8] is 0.65 µg/mL; in data set [18], more than 20 µg/mL; in the data set on Coxsackievirus B4 [10], more than 31.5 µg/mL; with Human alphaherpesvirus 2 [11], 0.42 µg/mL; in the data set with Human alphaherpesvirus 3 [12], 0.03 µg/mL; in the data set with Punta Toro virus, more than 31.5 µg/mL. In data set [13], this molecule gave an EC50 of more than 31.5 µg/mL. Moreover, the MCC with HEL [6] was more than 31.5 µg/mL; in [19] (setting [22]), 60 µg/mL; in the data set with HeLa it was more than 31.5 µg/mL. Besides, the MCC at 72 h in data set [9] was more than 31.5 µg/mL; in data set [20], 20 µg/mL.

The CC50 is the concentration at which the toxic effect on the cells reaches its halfway point. Usually EC50 stands for the concentration at which the effect is half-maximal.
